Test results published in patent US20160046603A1, “Crystalline Forms of D-Glucitol, 1-Deoxy-1-(Methylamino)-, 1-(6-Amino-3,5-Difluoropyridine-2-Yl)-8-Chloro-6-Fluoro-1,4-Dihydro-7-(3-Hydroxyazetidin-1-Yl)-4-Oxo-3-Quinolinecarboxylate” (MELINTA THERAPEUTICS, INC., priority 2013, published 2016).

Experiments:
[1] = over the parent acid; cited from earlier work
[2] = Phase 2 trials, nearly 1,400 patients; cited from earlier work
[3] = test system: topoisomerase and gyrase; conditions: cited from earlier work
[4] = test system: Gram-negative and Gram-negative bacteria; conditions: cited from earlier work
[5] = Intrinsic dissolution rate; assay type: physicochemical
Description: Approximately 100 mg of the pure test compound was compressed under high pressure (7 ton), using a constructed die. No additives were added, thus avoiding any external interference in the intrinsic dissolution profile. The resulting non-disintegrating disc was transferred to the dissolution apparatus, Distek model 5100 premiere dissolution system, containing 900 mL of pH 5 buffer with 15 mM hexadecyl trimethyl ammonium bromide (HTAB), pre-heated to 37° C. The stirring speed of the paddle was set to 50 rpm. The solution was sampled at set time points with the resulting aliquots analyzed directly by HPLC, with reference to standard solutions. 5 standards, with concentrations ranging from 0.03 to 0.005 mg/mL in deionized water, and the sample solutions were injected, together with blank injections of the deionized water. The concentration was calculated using the peak areas determined by integration of the peak found at the same retention time as the principal peak in the standard injection.

[6] = Solid-state stability / polymorph conversion followed by XRPD; assay type: physicochemical; conditions: for thermodynamic stability: Form 1A versus Form 1B
Description: X-Ray Powder Diffraction patterns were collected on a Bruker AXS C2 GADDS diffractometer using Cu Kα radiation (40 kV, 40 mA), automated XYZ stage, laser video microscope for auto-sample positioning and a HiStar 2-dimensional area detector. X-ray optics consists of a single Gael multilayer mirror coupled with a pinhole collimator of 0.3 mm. A weekly performance check was carried out using a certified standard NIST 1976 Corundum (flat plate). Similar instruments can be used to obtain XRPD patterns.
The beam divergence, i.e. the effective size of the X-ray beam on the sample, was approximately 4 mm. A θ-θ continuous scan mode was employed with a sample—detector distance of 20 cm which gives an effective 2θ range of 3.2°-29.7°. The samples were exposed to the X-ray beam for approximately 120 seconds. The software used for data collection was GADDS for WNT 4.1.16 and the data were analyzed and presented using Diffrac Plus EVA v11.0.0.2 or v13.0.0.2.
Samples run under ambient conditions were prepared as flat plate specimens using powder as received without grinding. Approximately 1-2 mg of the sample was lightly pressed on a glass slide to obtain a flat surface.

[7] = Modulated differential scanning calorimetry (mDSC); assay type: physicochemical; conditions: mDSC thermogram, FIG. 4
Description: DSC data were collected on a TA Instruments Q2000 equipped with a 50 position autosampler. Similar instruments can be used to collect DSC data. The calibration for thermal capacity was carried out using sapphire and the calibration for energy and temperature was carried out using certified indium. Modulated temperature DSC was carried out using an underlying heating rate of 2° C./min and temperature modulation parameters of ±1.2° C. (amplitude) every 60 seconds (period). Typically 0.5-3 mg of each sample, in a pin-holed aluminum pan, was heated at […] from 25° C. to 220° C. A purge of dry nitrogen at 50 ml/min was maintained over the sample. The instrument control software was Advantage for Q Series v2.8.0.392 and Thermal Advantage v4.8.3 and the data were analyzed using Universal Analysis v4.4A.

For `CNC[C@H](O)[C@@H](O)[C@H](O)[C@H](O)CO.Nc1nc(-n2cc(C(=O)O)c(=O)c3cc(F)c(N4CC(O)C4)c(Cl)c32)c(F)cc1F` [D-glucitol, 1-deoxy-1-(methylamino)-, 1-(6-amino-3,5-difluoropyridin-2-yl)-8-chloro-6-fluoro-1,4-dihydro-7-(3-hydroxyazetidin-1-yl)-4-oxo-3-quinolinecarboyxlate], the “solubility, dissolution and bioavailability” value [1] is listed as “improved solubility, dissolution and bioavailability”.
For `Nc1nc(-n2cc(C(=O)O)c(=O)c3cc(F)c(N4CC(O)C4)c(Cl)c32)c(F)cc1F` [Delafloxacin, 1-deoxy-1-(methylamino)-, 1-(6-amino-3,5-difluoropyridin-2-yl)-8-chloro-6-fluoro-1,4-dihydro-7-(3-hydroxyazetidin-1-yl)-4-oxo-3-quinolinecarboyxlate], the tolerance and safety [2] is listed as “good tolerance and safety”, the “inhibition of topoisomerase and gyrase enzyme targets” value [3] is listed as “balanced inhibition” and the potency against bacteria [4] is listed as “highly potent”.
With `CNC[C@H](O)[C@@H](O)[C@H](O)[C@H](O)CO.Nc1nc(-n2cc(C(=O)O)c(=O)c3cc(F)c(N4CC(O)C4)c(Cl)c32)c(F)cc1F` [Form 1A, D-glucitol, 1-deoxy-1-(methylamino)-, 1-(6-amino-3,5-difluoropyridin-2-yl)-8-chloro-6-fluoro-1,4-dihydro-7-(3-hydroxyazetidin-1-yl)-4-oxo-3-quinolinecarboyxlate] the dissolution characteristics ([5]; Form 1A versus Form 1B) was “improved dissolution characteristics” and the thermodynamic stability [6] was “thermodynamic stability over Form 1B”.
In the case of `CNC[C@H](O)[C@@H](O)[C@H](O)[C@H](O)CO.Nc1nc(-n2cc(C(=O)O)c(=O)c3cc(F)c(N4CC(O)C4)c(Cl)c32)c(F)cc1F` [Form 1B, D-glucitol, 1-deoxy-1-(methylamino)-, 1-(6-amino-3,5-difluoropyridin-2-yl)-8-chloro-6-fluoro-1,4-dihydro-7-(3-hydroxyazetidin-1-yl)-4-oxo-3-quinolinecarboyxlate], the “non-reversible transition of Form 1B to Form 1A” value [7] is reported as “about 94 °C”, the “initial dissolution rate (intrinsic dissolution profile)” value ([5]; compressed disc, 900 mL pH 5 buffer with 15 mM HTAB, 37° C., 50 rpm, compared with the other phase) is reported as “significantly faster initial dissolution rates” and the “dissociation to the free acid post IDR” value ([5]; confirmed by 1H NMR analyses post IDR) is reported as “almost complete dissociation to the free acid”. The thermodynamic stability [6] was “metastable” and the “conversion of polymorphic form” value ([6]; exposure to humidity and heat, followed by XRPD b-axis reflections) was “converts to crystalline anhydrous Form 1A delafloxacin meglumine on exposure to humidity and heat”.
